Reference: patent publication US20240116985A1, “STAPLED PEPTIDES AND METHODS THEREOF” (priority 2020, published 2024)

Experiment: CHI Log D procedure
Format: physicochemical
Details: for chromatographic logD: pH 7.4, CHI Log D; for CHI Log D: pH 7.4

| Compound | chromatographic logD | CHI Log D |
| --- | --- | --- |
| CC(=O)N[C@@H](Cc1ccccc1)C(=O)N[C@@H](CC(=O)O)C(=O)N[C@@H](C)C(=O)N[C@]1(C)CCCCCC=CCOC(=O)N2CC(C(=O)N[C@@H](Cc3ccccc3)C(=O)N[C@@H](Cc3c[nH]c4ccccc34)C(=O)N[C@@H](CCC(N)=O)C(N)=O)(C2)NC(=O)[C@H](C(C)C)NC(=O)[C@H](Cc2ccccc2)NC(=O)[C@H](C)NC(=O)[C@H](C)NC(=O)[C@H](CC(=O)O)NC(=O)[C@H](CC(=O)O)NC1=O [I-38, Ac-Phe-Asp-Ala-R7-Asp-Asp-Ala-Ala-Phe-Val-Az-Phe-Trp-Gln-NH2] | 1.21 | – |
| CC(=O)N[C@@H](Cc1ccccc1)C(=O)N[C@@H](CC(=O)O)C(=O)N[C@]1(C)CCCCCCC=CCOC(=O)N2CC[C@@](C(=O)N[C@@H](C)C(=O)N[C@@H](Cc3ccccc3)C(=O)N[C@@H](Cc3c[nH]c4ccccc34)C(=O)N[C@@H](CCC(N)=O)C(N)=O)(C2)NC(=O)[C@H](Cc2ccccc2)NC(=O)[C@H](C)NC(=O)[C@H](C)NC(=O)[C@H](CC(=O)O)NC(=O)[C@H](CC(=O)O)NC(=O)[C@H](C)NC1=O [I-51, Ac-Phe-Asp-R8-Ala-Asp-Asp-Ala-Ala-Phe-PyrS-Ala-Phe-Trp-Gln-NH2] | 1.25 | – |
| CCCC[C@@H]1NC(=O)[C@H](CC(=O)O)NC(=O)[C@](C)(NC(=O)[C@@H](NC(=O)[C@H](CC(=O)O)NC(=O)[C@H](C)NC(C)=O)[C@@H](C)CC)CCN(C)C(=O)OCC=CCCCCC[C@@](C)(C(=O)N[C@@H](Cc2ccccc2)C(=O)N[C@@H](Cc2c[nH]c3ccccc23)C(=O)N[C@@H](Cc2c[nH]cn2)C(N)=O)NC(=O)[C@H](CCC(N)=O)NC(=O)[C@H](Cc2ccccc2)NC(=O)[C@H](C)NC(=O)[C@H](C)NC1=O [I-68, Ac-Ala-Asp-Ile-RdN-Asp-nLeu-Ala-Ala-Phe-Gln-S7-Phe-Trp-His-NH2] | – | 1.553 |
| CCCC[C@@H]1NC(=O)[C@H](C)NC(=O)[C@H](C)NC(=O)[C@H](CC(=O)O)NC(=O)[C@H](CC(=O)O)NC(=O)[C@](C)(NC(=O)[C@H](C)NC(=O)[C@H](CC(=O)O)NC(=O)[C@H](Cc2ccccc2)NC(C)=O)CCCCCCC=CCOC(=O)N2CC[C@@](C(=O)N[C@@H](Cc3ccccc3)C(=O)N[C@@H](Cc3c[nH]c4ccccc34)C(=O)N[C@@H](CCC(N)=O)C(N)=O)(C2)NC(=O)[C@H](C(C)C)NC1=O [I-76, Ac-Phe-Asp-Ala-R8-Asp-Asp-Ala-Ala-nLeu-Val-PyrS-Phe-Trp-Gln-NH2] | 1.2 | – |
| CC(=O)N[C@@H](Cc1ccccc1)C(=O)N[C@@H](CC(=O)O)C(=O)N[C@@H](C)C(=O)N[C@]1(C)CCCCCCC=CCOC(=O)N2CC[C@@](C(=O)N[C@@H](Cc3ccccc3)C(=O)N[C@@H](Cc3c[nH]c4ccccc34)C(=O)N[C@@H](CCC(N)=O)C(N)=O)(C2)NC(=O)[C@H](C(C)C)NC(=O)[C@H](Cc2ccc(C(N)=O)cc2)NC(=O)[C@H](C)NC(=O)[C@H](C)NC(=O)[C@H](CC(=O)O)NC(=O)[C@H](CC(=O)O)NC1=O [I-92, Ac-Phe-Asp-Ala-R8-Asp-Asp-Ala-Ala-4CBMF-Val-PyrS-Phe-Trp-Gln-NH2] | – | 1.199 |
| CC(=O)N[C@@H](Cc1ccccc1)C(=O)N[C@@H](CC(=O)O)C(=O)N[C@@H](C)C(=O)N[C@]1(C)CCCCCCC=CCOC(=O)N2CC[C@@](C(=O)N[C@@H](Cc3ccccc3)C(=O)N[C@@H](Cc3c[nH]c4ccccc34)C(=O)N[C@@H](CCC(N)=O)C(N)=O)(C2)NC(=O)[C@H](C(C)C)NC(=O)[C@H](Cc2ccccc2)NC(=O)[C@H](C)NC(=O)[C@H](C)NC(=O)[C@H](Cc2ccccc2)NC(=O)[C@H](CC(=O)O)NC1=O [I-100, Ac-Phe-Asp-Ala-R8-Asp-Phe-Ala-Ala-Phe-Val-PyrS-Phe-Trp-Gln-NH2] | – | 1.993 |
| CC(=O)N[C@@H](Cc1ccccc1)C(=O)N[C@@H](CC(=O)O)C(=O)N[C@@H](C)C(=O)N[C@]1(C)CCCCCCC=CCOC(=O)N2CC[C@@](C(=O)N[C@@H](Cc3ccccc3)C(=O)N[C@@H](Cc3c[nH]c4ccccc34)C(=O)N[C@@H](CCC(N)=O)C(N)=O)(C2)NC(=O)[C@H](C(C)C)NC(=O)[C@H](Cc2ccccc2)NC(=O)[C@H](C)NC(=O)[C@H](C)NC(=O)[C@H](Cc2cccc3ccccc23)NC(=O)[C@H](CC(=O)O)NC1=O [I-114, Ac-Phe-Asp-Ala-R8-Asp-1NapA-Ala-Ala-Phe-Val-PyrS-Phe-Trp-Gln-NH2] | 2.11 | – |
| CC(=O)N[C@@H](Cc1ccccc1)C(=O)N[C@@H](CC(=O)O)C(=O)N[C@@H](C)C(=O)N[C@]1(C)CCCCCCC=CCOC(=O)N2CC[C@@](C(=O)N[C@@H](Cc3ccccc3)C(=O)N[C@@H](Cc3c[nH]c4ccccc34)C(=O)N[C@@H](CCC(N)=O)C(N)=O)(C2)NC(=O)[C@H](C(C)C)NC(=O)[C@H](Cc2ccccc2)NC(=O)[C@H](C)NC(=O)[C@H](C)NC(=O)[C@H](Cc2ccc3ccccc3c2)NC(=O)[C@H](CC(=O)O)NC1=O [I-115, Ac-Phe-Asp-Ala-R8-Asp-2NapA-Ala-Ala-Phe-Val-PyrS-Phe-Trp-Gln-NH2] | – | 2.145 |
| CC(=O)N[C@@H](Cc1ccccc1)C(=O)N[C@@H](CC(=O)O)C(=O)N[C@@H](C)C(=O)N[C@]1(C)CCCCCCC=CCOC(=O)N2CC[C@@](C(=O)N[C@@H](Cc3ccccc3)C(=O)N[C@@H](Cc3c[nH]c4ccccc34)C(=O)N[C@@H](CCC(N)=O)C(N)=O)(C2)NC(=O)[C@H](C(C)C)NC(=O)[C@H](CCc2ccccc2)NC(=O)[C@H](C)NC(=O)[C@H](C)NC(=O)[C@H](CC(=O)O)NC(=O)[C@H](CC(=O)O)NC1=O [I-118, Ac-Phe-Asp-Ala-R8-Asp-Asp-Ala-Ala-hPhe-Val-PyrS-Phe-Trp-Gln-NH2] | – | 1.545 |
| CC(=O)N[C@@H](Cc1ccccc1)C(=O)N[C@@H](CC(=O)O)C(=O)N[C@@H](C)C(=O)N[C@]1(C)CCCCCCC=CCOC(=O)N2CC[C@@](C(=O)N[C@@H](CC(=O)O)C(=O)N[C@@H](Cc3c[nH]c4ccccc34)C(=O)N[C@@H](CCC(N)=O)C(N)=O)(C2)NC(=O)[C@H](C(C)C)NC(=O)[C@H](Cc2ccccc2)NC(=O)[C@H](C)NC(=O)[C@H](C)NC(=O)[C@H](CC(=O)O)NC(=O)[C@H](CC(=O)O)NC1=O [I-121, Ac-Phe-Asp-Ala-R8-Asp-Asp-Ala-Ala-Phe-Val-PyrS-Asp-Trp-Gln-NH2] | – | 0.825 |
| CC(=O)N1CCC[C@]12CC=CCCCC1(CCCC=CCCCCCC[C@@](C)(C(=O)N[C@@H](Cc3ccccc3)C(=O)N[C@@H](Cc3c[nH]c4ccccc34)C(N)=O)NC(=O)[C@H](C(C)C)NC(=O)[C@H](Cc3ccccc3)NC(=O)[C@H](C)NC(=O)[C@H](C)NC(=O)[C@H](CCC(=O)O)NC(=O)[C@H](CC(=O)O)NC1=O)NC(=O)[C@H](C)NC(=O)[C@H](CC(=O)O)NC2=O (stereo partly drawn) [I-128, Ac-PL3-Asp-Ala-B5-Asp-Glu-Ala-Ala-Phe-Val-S8-Phe-Trp-NH2] | 2.22 | – |

Other lines, results leading:

| chromatographic logD | CHI Log D | Compound |
| --- | --- | --- |
| – | 1.09 | CC(=O)N[C@@H](Cc1ccccc1)C(=O)N[C@@H](CC(=O)O)C(=O)N[C@@H](C)C(=O)N[C@]1(C)CCN(C)C(=O)OCC=CCC[C@@](C)(C(=O)N[C@@H](Cc2ccccc2)C(=O)N[C@@H](Cc2c[nH]c3ccccc23)C(=O)N[C@@H](CCC(N)=O)C(N)=O)NC(=O)[C@H](C(C)C)NC(=O)[C@H](Cc2ccccc2)NC(=O)[C@H](C)NC(=O)[C@H](C)NC(=O)[C@H](CC(=O)O)NC(=O)[C@H](CC(=O)O)NC1=O [I-42, Ac-Phe-Asp-Ala-RdN-Asp-Asp-Ala-Ala-Phe-Val-S4-Phe-Trp-Gln-NH2] |
| – | 1.531 | CC(=O)N[C@@H](Cc1ccccc1)C(=O)N[C@@H](CC(=O)O)C(=O)N[C@@H](C)C(=O)N[C@]1(C)CCCCCCC=CCOC(=O)N2CC[C@@](C(=O)N[C@@H](Cc3ccccc3)C(=O)N[C@@H](Cc3c[nH]c4ccccc34)C(=O)N[C@@H](CCC(N)=O)C(N)=O)(C2)NC(=O)[C@H](C(C)C)NC(=O)[C@H](Cc2ccccc2)NC(=O)[C@H](C)NC(=O)[C@H](C)NC(=O)[C@H](CCC(N)=O)NC(=O)[C@H](CC(=O)O)NC1=O [I-59, Ac-Phe-Asp-Ala-R8-Asp-Gln-Ala-Ala-Phe-Val-PyrS-Phe-Trp-Gln-NH2] |
| 1.28 | – | CC(=O)N[C@@H](Cc1ccccc1)C(=O)N[C@@H](CC(=O)O)C(=O)N[C@@H](C)C(=O)N[C@]1(C)CCCCCCC=CCOC(=O)N2CC[C@@](C(=O)N[C@@H](Cc3ccccc3)C(=O)N[C@@H](Cc3c[nH]c4ccccc34)C(=O)N[C@@H](CCC(N)=O)C(N)=O)(C2)NC(=O)[C@H](C(C)C)NC(=O)[C@H](Cc2cccc(F)c2)NC(=O)[C@H](C)NC(=O)[C@H](C)NC(=O)[C@H](CC(=O)O)NC(=O)[C@H](CC(=O)O)NC1=O [I-77, Ac-Phe-Asp-Ala-R8-Asp-Asp-Ala-Ala-3FF-Val-PyrS-Phe-Trp-Gln-NH2] |
| 1.24 | – | CC(=O)N[C@@H](Cc1ccccc1)C(=O)N[C@@H](CC(=O)O)C(=O)N[C@@H](C)C(=O)N[C@]1(C)CCCCCCC=CCOC(=O)N2CC[C@@](C(=O)N[C@@H](Cc3ccccc3)C(=O)N[C@@H](Cc3c[nH]c4ccccc34)C(=O)N[C@@H](CCC(N)=O)C(N)=O)(C2)NC(=O)[C@H](C(C)C)NC(=O)[C@H](Cc2ccccn2)NC(=O)[C@H](C)NC(=O)[C@H](C)NC(=O)[C@H](CC(=O)O)NC(=O)[C@H](CC(=O)O)NC1=O [I-86, Ac-Phe-Asp-Ala-R8-Asp-Asp-Ala-Ala-2PyrA-Val-PyrS-Phe-Trp-Gln-NH2] |
| 1 | – | CC(=O)N[C@@H](Cc1ccccc1)C(=O)N[C@@H](CC(=O)O)C(=O)N[C@@H](C)C(=O)N[C@]1(C)CCCCCCC=CCOC(=O)N2CC[C@@](C(=O)N[C@@H](Cc3cccc(C(N)=O)c3)C(=O)N[C@@H](Cc3c[nH]c4ccccc34)C(=O)N[C@@H](CCC(N)=O)C(N)=O)(C2)NC(=O)[C@H](C(C)C)NC(=O)[C@H](Cc2ccccc2)NC(=O)[C@H](C)NC(=O)[C@H](C)NC(=O)[C@H](CC(=O)O)NC(=O)[C@H](CC(=O)O)NC1=O [I-107, Ac-Phe-Asp-Ala-R8-Asp-Asp-Ala-Ala-Phe-Val-PyrS-3CBMF-Trp-Gln-NH2] |
| – | 1.243 | CC(=O)N[C@@H](Cc1ccccc1)C(=O)N[C@@H](CC(=O)O)C(=O)N[C@@H](C)C(=O)N[C@]1(C)CCCCCCC=CCOC(=O)N2CC[C@@](C(=O)N[C@@H](Cc3ccccc3)C(=O)N[C@@H](Cc3c[nH]c4ccccc34)C(=O)N[C@@H](CCC(N)=O)C(N)=O)(C2)NC(=O)[C@H](C(C)C)NC(=O)[C@H](CCc2ccc(O)cc2)NC(=O)[C@H](C)NC(=O)[C@H](C)NC(=O)[C@H](CC(=O)O)NC(=O)[C@H](CC(=O)O)NC1=O [I-120, Ac-Phe-Asp-Ala-R8-Asp-Asp-Ala-Ala-hTyr-Val-PyrS-Phe-Trp-Gln-NH2] |
